{"source": "patent US20040038861A1", "about": "“Methods and compositions for normalizing lipid levels in mammalian tissues” (priority 2001, published 2004)", "key": {"soleus muscle [1]": {"tested_on": "soleus muscle", "assay": "Individual free fatty acids by gas chromatography in isolated soleus muscle from normally fed rats", "type": "cell-based, rat", "procedure": "Animal models. Normallyfed rats. All protocols were approved by the University of Auckland Animal Ethics Committee. Male Wistar rats, (age=50 d) weighing 200-250 g, were housed in a constant 12 h/12 h-light/dark cycle and received standard rat-chow (Diet 86, NRM, Auckland) and water ad libitum. The standard diet contained 5% fat (w/w), which comprised mainly beef tallow. The triglyceride, total and free fatty acid contents of representative samples of this diet were analyzed, and are shown in Table 3. Rats were anaesthetized by intraperitoneal injection of sodium pentobarbital (45 mg/kg body weight) then sacrificed by cervical dislocation.\nSoleus muscle tissue isolation and incuhation.Immersion and incubation media was Krebs-Henseleit buffer (KHB) containing 118.5 mM NaCl, 4.75 mM KCl, 1.18 mM MgSO4.7H2O and KH2PO4, 24.8 mM NaHCO3, 2.54 mM CaCl2 and 10 mM d-glucose. The medium was gassed continuously with 95% O2/5% CO2. […] Soleus muscles of both legs were excised keeping the tissue immersed in KHB; muscles were separated into two equal parts and transferred to the incubation flasks. At the completion of incubation the muscles were snap frozen in liquid nitrogen, and then trimmed of connective tissue and all visible fat. The muscle strips were stored at −80° C. until analysis.\nLipid extraction and chromatographic separation of fatty acids. Total lipids were extracted from muscle strips by a modified version of the method of Bligh and Dyer (Gorski et al., 1988, Mol & Cell Biochem 178:113-118; 1. Bligh et al., 1959, Can J Biochem Physiol 37: 911-917). Muscles were homogenised (Soniprep 150) in 0.4 ml of deionised water. Solvent volumes used herein were varied according to the water content of the muscle (ie muscle weight) as described (Bligh & Dyer, supra). 2 vols of methanol containing 0.005% butylated hydroxy toluene (BHT) and 1 vol chloroform were added to the muscle suspension. Homogenates were vortexed at maximum speed for 2 minutes and centrifuged at 2,500 g for 4 minutes. Supernatants were recovered and pellets re-extracted with 2 vol methanol, 1 vol chloroform and 0.8 vol 0.2 N HCl. Residues were vortexed for 2 min then centrifuged at 3,500 g for 3 min. After centrifugation the combined supernatants were diluted with 2v each of milli Q water and chloroform and the phases separated by centrifugation at 3,500 g for 4 minutes. The lower chloroform phase was recovered, neutralised by dropwise addition of 0.2 N methanolic NH4OH and evaporated down in a stream of N2. The samples were stored at −80° C. until required.\nAminopropyl phase (250 mg) was packed into 16 ml teflon columns with teflon frits placed at the top and bottom of the bonded phase. Columns were placed in a Vac Elut apparatus and washed twice with 2 ml portions of hexane (Prasad et al., 1988, J Chromato 428: 221-228; Kaluzny et al., 1985, J Lipid Res 26: 135-140). The dry lipid samples were taken up in two 0.150 ml portions of chloroform and applied to the column under atmospheric pressure. After adsorption the neutral lipids were eluted with 4 ml of chloroform-2-propanol (2:1, v/v) and the free fatty acids eluted with 4 ml of 2% acetic acid in diethyl ether. The solvent containing the free fatty acids was dried under a stream of N2.\nGas-liquid chromatographic analysis. Dry free fatty acid residues were processed for derivatisation of methyl esters by the boron trifluoride-methanol method (Prasad, supra). 1 ml of boron trifluoride in methanol (BF3) was added to each sample, the sample vials were heated at 70° C. for 5 minutes, shaken vigorously, and baked for a further 10 minutes. Once the samples reached room temperature 0.5 ml milli Q water was added, the sample vials shaken, 0.1 ml heptane was added and the sample shaken again. 0.05 ml of the top heptane layer was removed for GLC analysis. […]"}, "soleus muscle [2]": {"tested_on": "soleus muscle", "assay": "Incorporation of D[14C(U)]glucose into glycogen in isolated incubated soleus muscle", "type": "cell-based, rat", "conditions": "for rate of D[14C(U)]glucose incorporation into glycogen: 10 nM peptide, 2 h; for EC50: isolated rat soleus muscle", "procedure": "Soleus muscle preparation. All experiments were performed according to protocols approved by the Institutional Animal Ethics Committee. 5-6 week-old male Wistar rats (160 g) were kept on a 12:12-h light/dark cycle, and fed and watered ad libitum. Animals were anaesthetised with 50 mg/kg Nembutal (pentobarbitone sodium), then sacrificed by cervical dislocation. Soleus muscles were dissected under oxygenated KHB (118 mM NaCl, 4.75 mM KCl, 1.2 mM MgSO4, 24.8 mM NaHCO3, 1.2 mM KH2PO4, 2.54 mM CaCl2, 10 mM glucose, pH 7.4) and teased into halves, then incubated as described below.\nMeasurement of glycogen metabolism in isolated, incubated soleus muscle. […]. Glycogen was precipitated overnight at −20° C. with 96% ethanol (1.2 ml), followed by centrifugation at 8,000 g (15 min, 4° C.). Pellets were washed twice with the same amount of ethanol then dissolved in water (0.6 ml). Aliquots (0.3 ml) were analyzed for D[^14C(U)] glucose content by liquid scintillation spectrometry.\nData analysis. One way ANOVA, Dunnett's Multiple Comparisons Test, and unpaired Student's t-tests were used to calculate the statistical significance of differences, as appropriate. Dose-response curves were fitted to a sigmoidal dose-response algorithm, as follows: Y=minimum+(maximum−minimum)/([…] log ^(EC50^−X), for 2-DOG-uptake; and by a four parameter logistic model, Y=minimum+(maximum−minimum)/(1+10 log ^(EC50^−X)Hill-Coefficient) for total glycogen and [^14C]glucose incorporation. Calculations were performed using Prism v2.0 (GraphPad Software, San Diego, Calif.) to derive values for half-maximal effective concentration (EC50). Displacement curves derived for competition of bound radioligand with cold ligand in transfected cells were calculated according to a one site competition fit using Prism v2.0."}, "[3]": {"conditions": "normally fed rats, hormone 1 hour, GC"}, "[4]": {"conditions": "normally fed rats, hormone 1 hour, GC, listed as Amylin"}}}
{"substance": "Rat amylin", "values": [{"measurement": "Total free fatty acids", "setting": "soleus muscle [1]; 1 hour, GC, hormone concentrations 100 nM for all", "result": "0.636 ± 0.05", "unit": "nmol/g wwt"}, {"measurement": "free fatty acid C14:0 as percentage of total resting fatty acid", "setting": "soleus muscle [1]; normally fed rats, 1 hour", "result": 3.4, "unit": "%"}, {"measurement": "free fatty acid C15:0 as percentage of total resting fatty acid", "setting": "soleus muscle [1]; normally fed rats, 1 hour", "result": 15.4, "unit": "%"}, {"measurement": "free fatty acid C16:0 as percentage of total resting fatty acid", "setting": "soleus muscle [1]; normally fed rats, 1 hour", "result": 2.6, "unit": "%"}, {"measurement": "free fatty acid C16:1 (n-7) as percentage of total resting fatty acid", "setting": "soleus muscle [1]; normally fed rats, 1 hour", "result": 15.8, "unit": "%"}, {"measurement": "free fatty acid C16:1 (n-9) as percentage of total resting fatty acid", "setting": "soleus muscle [1]; normally fed rats, 1 hour", "result": 7.2, "unit": "%"}, {"measurement": "free fatty acid C17:0 as percentage of total resting fatty acid", "setting": "soleus muscle [1]; normally fed rats, 1 hour", "result": 10.7, "unit": "%"}, {"measurement": "free fatty acid C18:0 as percentage of total resting fatty acid", "setting": "soleus muscle [1]; normally fed rats, 1 hour", "result": 2.9, "unit": "%"}, {"measurement": "free fatty acid C18:1 (n-7) as percentage of total resting fatty acid", "setting": "soleus muscle [1]; normally fed rats, 1 hour", "result": 1.3, "unit": "%"}, {"measurement": "free fatty acid C18:1 (n-9) as percentage of total resting fatty acid", "setting": "soleus muscle [1]; normally fed rats, 1 hour", "result": 1.6, "unit": "%"}, {"measurement": "free fatty acid C18:2 as percentage of total resting fatty acid", "setting": "soleus muscle [1]; normally fed rats, 1 hour", "result": 1.1, "unit": "%"}, {"measurement": "free fatty acid C18:3 as percentage of total resting fatty acid", "setting": "soleus muscle [1]; normally fed rats, 1 hour", "result": 3.7, "unit": "%"}, {"measurement": "free fatty acid C20:0 as percentage of total resting fatty acid", "setting": "soleus muscle [1]; normally fed rats, 1 hour", "result": 4.5, "unit": "%"}, {"measurement": "free fatty acid C20:4 as percentage of total resting fatty acid", "setting": "soleus muscle [1]; normally fed rats, 1 hour", "result": 1.0, "unit": "%"}, {"measurement": "free fatty acid C20:5 as percentage of total resting fatty acid", "setting": "soleus muscle [1]; normally fed rats, 1 hour", "result": 1.4, "unit": "%"}, {"measurement": "free fatty acid C22:4 as percentage of total resting fatty acid", "setting": "soleus muscle [1]; normally fed rats, 1 hour", "result": 9.1, "unit": "%"}, {"measurement": "free fatty acid C22:6 as percentage of total resting fatty acid", "setting": "soleus muscle [1]; normally fed rats, 1 hour", "result": 3.3, "unit": "%"}, {"measurement": "free fatty acid adrenic C22:4", "setting": "soleus muscle [1]; [3]", "result": "0.008 ± 0.003", "unit": "nmol/g wwt"}, {"measurement": "free fatty acid arachidic C20:0", "setting": "soleus muscle [1]; [3]", "result": "0.008 ± 0.002", "unit": "nmol/g wwt"}, {"measurement": "free fatty acid arachidonic C20:4", "setting": "soleus muscle [1]; [3]", "result": "0.016±0.002", "unit": "nmol/g wwt"}, {"measurement": "free fatty acid cervonic C22:6", "setting": "soleus muscle [1]; [3]", "result": "0.03±0.004", "unit": "nmol/g wwt"}, {"measurement": "free fatty acid linoleic C18:2", "setting": "soleus muscle [1]; [3]", "result": "0.058 ± 0.006", "unit": "nmol/g wwt"}, {"measurement": "free fatty acid linolenic C18:3", "setting": "soleus muscle [1]; [3]", "result": "0.01 ± 0.002", "unit": "nmol/g wwt"}, {"measurement": "free fatty acid margaric C17:0", "setting": "soleus muscle [1]; [3]", "result": "0.013 ± 0.0022", "unit": "nmol/g wwt"}, {"measurement": "free fatty acid myristic C14:0", "setting": "soleus muscle [1]; [3]", "result": "0.026 ± 0.0028", "unit": "nmol/g wwt"}, {"measurement": "free fatty acid oleic C18:1", "setting": "soleus muscle [1]; [3]", "result": "0.076 ± 0.0082", "unit": "nmol/g wwt"}, {"measurement": "free fatty acid palmitic C16:0", "setting": "soleus muscle [1]; [3]", "result": "0.21 ± 0.0188", "unit": "nmol/g wwt"}, {"measurement": "free fatty acid palmitoleic (n-7) C16:1", "setting": "soleus muscle [1]; [3]", "result": "0.015 ± 0.0025", "unit": "nmol/g wwt"}, {"measurement": "free fatty acid palmitoleic (n-9) C16:1", "setting": "soleus muscle [1]; [3]", "result": "0.008±0.0013", "unit": "nmol/g wwt"}, {"measurement": "free fatty acid pentadecanoic C15:0", "setting": "soleus muscle [1]; [3]", "result": "0.013 ± 0.002", "unit": "nmol/g wwt"}, {"measurement": "free fatty acid stearic C18:0", "setting": "soleus muscle [1]; [3]", "result": "0.125 ± 0.0058", "unit": "nmol/g wwt"}, {"measurement": "free fatty acid timnodonic C20:5", "setting": "soleus muscle [1]; [3]", "result": "0.005 ± 0.0007", "unit": "nmol/g wwt"}, {"measurement": "free fatty acid vaccenic C18:1", "setting": "soleus muscle [1]; [3]", "result": "0.015 ± 0.0015", "unit": "nmol/g wwt"}, {"measurement": "free fatty acid arachidonic C20:4", "setting": "soleus muscle [1]; [4]", "result": "0.016 ± 0.002", "unit": "nmol/g wwt"}, {"measurement": "free fatty acid cervonic C22:6", "setting": "soleus muscle [1]; [4]", "result": "0.03 ± 0.004", "unit": "nmol/g wwt"}, {"measurement": "free fatty acid palmitoleic (n-9) C16:1", "setting": "soleus muscle [1]; [4]", "result": "0.008 ± 0.0013", "unit": "nmol/g wwt"}, {"measurement": "rate of D[14C(U)]glucose incorporation into glycogen", "setting": "soleus muscle [2]; absence of insulin, control 4.8±0.3", "result": "2.7±0.8", "unit": "μmol/g dry-wt muscle/h"}, {"measurement": "rate of D[14C(U)]glucose incorporation into glycogen", "setting": "soleus muscle [2]; maximal insulin, control 27.6±1.4", "result": "16.0±2.5", "unit": "μmol/g dry-wt muscle/h"}, {"measurement": "EC50", "setting": "soleus muscle [2]; absence of insulin", "result": 9.4, "unit": "nM"}, {"measurement": "EC50", "setting": "soleus muscle [2]; human insulin 23.7 nM", "result": 9.2, "unit": "nM"}]}
